The source made the active and inactive calls.
What was measured:
[1] = biological target: ATP-dependent molecular chaperone HSP82 (Candida albicans (strain WO-1) (Yeast), UniProt C4YTQ8); experiment: loss of DOC-induced GRE-beta-galactosidase reporter signal, dose response, Hsp90 inhibitor project, S. cerevisiae, luminescence (AID 2400); type: functional, cell-based;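 further: beta-galactosidase luminescence from glucocorticoid response element reporter as proxy for Hsp90 function; inhibitor potency where signal loss means Hsp90 inhibition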
[2] = ZM109 Env clade C HIV-1 fusion inhibitors, dose response, HeLa effector, CEM target cells, luciferase, cherry-pick (AID 652058); type: functional, cell-based
Focal adhesion kinase 1 = Focal adhesion kinase 1 (Homo sapiens, UniProt Q05397); type: functional;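 further: measured as one member of a kinome panel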
Troponin, cardiac muscle = Troponin, cardiac muscle (Homo sapiens, UniProt P19429+P45379+P63316); experiment: inhibitors of cardiac thin filament calcium sensitivity, dose response, biochemical, fluorescence, cardiac regulated thin filaments, triplicate IC50 (AID 504742); type: protein-complex assay
[3] = biological target: T1, 1-phosphatidylinositol 4,5-bisphosphate phosphodiesterase beta-3 (Homo sapiens, UniProt Q01970); experiment: Fluorescence-based biochemical high throughput dose response assay to identify inhibitors of phospholipase C isozymes (PLC-B3).
T1 sequence (Q01970 whole entry): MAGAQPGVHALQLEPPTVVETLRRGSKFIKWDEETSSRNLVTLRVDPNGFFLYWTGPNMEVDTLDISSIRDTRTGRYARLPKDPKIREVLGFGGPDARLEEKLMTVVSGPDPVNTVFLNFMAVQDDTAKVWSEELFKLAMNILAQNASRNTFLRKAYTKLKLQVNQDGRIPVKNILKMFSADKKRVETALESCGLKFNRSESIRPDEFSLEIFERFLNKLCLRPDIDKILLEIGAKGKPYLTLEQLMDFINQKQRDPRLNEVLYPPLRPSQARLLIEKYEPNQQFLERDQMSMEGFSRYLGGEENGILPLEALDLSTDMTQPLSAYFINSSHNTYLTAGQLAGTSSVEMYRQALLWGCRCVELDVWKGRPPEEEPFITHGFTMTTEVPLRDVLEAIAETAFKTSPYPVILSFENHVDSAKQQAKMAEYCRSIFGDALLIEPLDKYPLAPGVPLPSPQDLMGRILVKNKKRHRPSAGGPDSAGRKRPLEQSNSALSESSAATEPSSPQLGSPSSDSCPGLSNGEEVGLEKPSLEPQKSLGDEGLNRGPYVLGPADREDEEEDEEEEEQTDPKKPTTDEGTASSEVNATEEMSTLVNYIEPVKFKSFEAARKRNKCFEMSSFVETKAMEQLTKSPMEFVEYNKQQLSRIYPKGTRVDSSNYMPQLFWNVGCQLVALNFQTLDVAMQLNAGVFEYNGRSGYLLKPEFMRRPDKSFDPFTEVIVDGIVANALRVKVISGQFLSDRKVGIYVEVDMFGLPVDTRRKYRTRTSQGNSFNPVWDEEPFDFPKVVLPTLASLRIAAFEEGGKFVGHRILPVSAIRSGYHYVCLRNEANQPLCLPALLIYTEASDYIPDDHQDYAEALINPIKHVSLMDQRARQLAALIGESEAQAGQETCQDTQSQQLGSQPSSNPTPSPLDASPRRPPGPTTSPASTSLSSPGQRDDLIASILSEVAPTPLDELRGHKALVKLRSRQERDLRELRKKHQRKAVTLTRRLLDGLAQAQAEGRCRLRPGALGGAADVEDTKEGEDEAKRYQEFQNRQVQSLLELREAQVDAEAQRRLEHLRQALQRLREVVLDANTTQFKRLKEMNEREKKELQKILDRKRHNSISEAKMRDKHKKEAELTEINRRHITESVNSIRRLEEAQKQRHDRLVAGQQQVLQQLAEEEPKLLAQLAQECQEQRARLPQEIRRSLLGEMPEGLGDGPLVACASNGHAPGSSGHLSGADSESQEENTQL

SUMO-activating enzyme = SUMO-activating enzyme (Homo sapiens, UniProt Q9UBT2); experiment: SUMOylation inhibitor hit validation, confirmation, SUMOylation inhibitor project, biochemical, AlphaScreen (AID 2018); type: functional
Protein RecA = biological target: T2, Protein RecA (Mycobacterium tuberculosis, UniProt P9WHJ3); experiment: Fluorescence Cell-Free Homogeneous Dose Retest to Identify Inhibitors of RecA-Intein Splicing Activity. [Related pubchem assays (depositor defined):AID2097, AID2223, AID489010, AID492950]; type: functional
T2 sequence (P9WHJ3 whole entry): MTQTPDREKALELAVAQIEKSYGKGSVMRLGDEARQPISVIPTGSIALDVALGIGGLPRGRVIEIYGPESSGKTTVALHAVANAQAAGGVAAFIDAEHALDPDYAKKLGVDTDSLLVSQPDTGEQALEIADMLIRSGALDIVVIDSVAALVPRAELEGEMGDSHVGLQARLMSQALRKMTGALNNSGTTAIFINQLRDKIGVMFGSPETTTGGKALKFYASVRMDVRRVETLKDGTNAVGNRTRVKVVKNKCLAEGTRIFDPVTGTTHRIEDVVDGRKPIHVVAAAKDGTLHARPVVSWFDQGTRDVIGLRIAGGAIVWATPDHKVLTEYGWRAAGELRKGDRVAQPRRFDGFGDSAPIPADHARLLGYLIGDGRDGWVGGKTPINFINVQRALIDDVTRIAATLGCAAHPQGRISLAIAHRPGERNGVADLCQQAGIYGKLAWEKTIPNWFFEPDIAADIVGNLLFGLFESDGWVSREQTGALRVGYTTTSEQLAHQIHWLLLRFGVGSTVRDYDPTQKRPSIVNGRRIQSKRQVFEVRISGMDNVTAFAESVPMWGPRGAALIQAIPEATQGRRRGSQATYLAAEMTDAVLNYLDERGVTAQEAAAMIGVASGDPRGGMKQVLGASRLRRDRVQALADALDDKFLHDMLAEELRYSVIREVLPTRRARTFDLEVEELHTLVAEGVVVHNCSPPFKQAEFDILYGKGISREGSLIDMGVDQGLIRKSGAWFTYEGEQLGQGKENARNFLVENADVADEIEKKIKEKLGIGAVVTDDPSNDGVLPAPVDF

[4] = biological target: T3, Orexin/Hypocretin receptor type 1 (Homo sapiens, UniProt O43613); experiment: Homogeneous Time Resolved Fluorescence (HTRF)-based cell-based high throughput dose response assay for antagonists of the orexin 1 receptor (OX1R; HCRTR1). [Related pubchem assays (depositor defined):AID434989, AID435008, AID463079, AID485270, AID492963, AID492964, AID492965, AID493232, AID504717, AID504718]; type: functional;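 further: antagonism measured against Orexin-A challenge at about its EC80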
T3 sequence (O43613 whole entry): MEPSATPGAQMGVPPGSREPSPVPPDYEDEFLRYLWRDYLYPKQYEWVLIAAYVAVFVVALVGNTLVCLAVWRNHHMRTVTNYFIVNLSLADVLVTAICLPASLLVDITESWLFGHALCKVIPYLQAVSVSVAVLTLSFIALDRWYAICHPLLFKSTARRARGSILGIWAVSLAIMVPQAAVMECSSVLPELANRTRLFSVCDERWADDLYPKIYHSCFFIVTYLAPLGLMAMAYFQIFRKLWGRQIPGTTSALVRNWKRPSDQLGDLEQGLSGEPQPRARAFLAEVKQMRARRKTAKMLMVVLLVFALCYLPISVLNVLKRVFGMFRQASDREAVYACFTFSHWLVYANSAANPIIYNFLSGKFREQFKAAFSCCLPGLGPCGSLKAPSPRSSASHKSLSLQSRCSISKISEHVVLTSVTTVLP

In the case of `CCCC(=O)NC(c1cccs1)c1cc(Cl)c2cccnc2c1O` (stereo not drawn), the EC50 [1] is reported as > 150 µM (inactive) and the AC50 [2] is reported as 15 µM (active).

With `O=C(Nc1cccc(C2Nc3ccc4ccccc4c3C3C=CCC32)c1)c1ccc(F)cc1` (stereo not drawn) the Ki (Focal adhesion kinase 1) was > 6.31 µM (inactive).

For `O=C(O)CC(C(=O)O)N1C(=O)/C(=C/C=C/c2ccco2)SC1=S` (stereo not drawn), the IC50 (Troponin, cardiac muscle) was > 71.5 µM (inactive), the IC50 [3] was > 122 µM (inactive) and the IC50 (SUMO-activating enzyme) was 1.12 µM (active).

With `Cc1ccc(C(=O)OCn2ncc(Cl)c(Cl)c2=O)cc1` the EC50 (Protein RecA) was 0.924 µM (active) and the IC50 [4] was 17.4 µM (inactive).

— ChEMBL document CHEMBL1201862, “PubChem BioAssay data set” (2004)
